The values that follow come from patent US11925662B2, “Compositions and methods of enhancing anti-tumor response using hybrid neutrophils” (THE TRUSTEES OF THE UNIVERSITY OF PENNSYLVANIA, priority 2015, dated 2024).

Assay [1] deals with bone marrow neutrophils (BMNs). The assay can be described thus: Differentiation of BMNs into HLA-DR+CD14+ hybrid neutrophils (flow cytometry). The assay is classed as cell-based, human. Conditions: for induction of the CD14+HLA-DR+ hybrid phenotype in BMNs: single factor at the low concentrations found in the TCMs. As for the experimental part:
Generation of BM-Derived Hybrid and Canonical Neutrophils. To differentiate BMNs into cells that resemble canonical TANs, purified long-lived BMNs were cultured for 7 days with a TCM (50% v/v) collected from a patient's tumor digest where a large number of hybrid TANs were previously unable to be identified by flow cytometry. […] Alternatively, hybrid-neutrophils were differentiated from BMNs with low doses IFN-γ (50 pg/ml) and GM-CSF (50 pg/ml) for 7 days. If it was observed that the formation of hybrid BMNs was less than 80% the HLA-DR+CD14+ hybrid cells from TCM treated BMNs were enriched by positive selection using magnetic beads coated with anti-HLA-DR antibodies or by flow cytometric cell sorting. The proliferation of BMNs during the differentiation was assessed by flow cytometry using BrdU Flow Kit (BD Pharmingen). BMNs were exposed to bromo-deoxyuridine for 6 hours.
To test the effect of hypoxia on hybrid neutrophil formation, BMNs were cultured for 6 days under normoxic and hypoxic culture conditions maintained in a 37° C. incubator containing 5% CO2, and either atmospheric 21% O2 or 5% O2 condition (Hypoxia Incubator Chamber, Stemcell Techology). BMNs were also cultured in the presence of hybrid-inducing TCM and cobalt chloride (25 μM) (MP Biomedicals LLC), an agent that induces the hypoxia-inducible factor-1α, the main transcriptional factor activated in hypoxic conditions.
Flow Cytometry. Flow cytometric analysis was performed according to standard protocols. Negative gating was based on a fluorescence minus one (FMO) strategy. To exclude dead cells from analysis, cells were stained with the Fixable Viability Dye eFluor® 450 (ebioscience), LIVE/DEAD® fixable dead cell stains (Molecular probes, Life Technologies), or Zombie Yellow™ Fixable Viability dye (Biolegend). To distinguish early-stage apoptotic and late-stage apoptotic/necrotic cells, cells were first stained with Fixable Viability Dye eFluor® 660 (eBioscience). Then cells were washed with the AnnexinV-Binding Buffer and stained with anti-AnnexinV Abs (FITC) in the AnnexinV-Binding Buffer for 10 min at RT. Cells were washed and analyzed by flow cytometry.
(§1) For phenotypic and functional analysis PBNs, BMNs, and TANs were gated on live CD11b^+CD15^hiCD66b^+ cells. […] All data were acquired using the BD FACSCalibur or BD LSRFortessa™ (BD Bioscience) flow cytometers and analyzed using FlowJo software (TreeStar Inc.).
(In general: Flow cytometry measures light scatter and fluorescence of single cells or particles in a stream.)

Assay [2] has as its system PD-L1. As to the kind of experiment: PD-L1 expression on HLA-DR+ BMNs (flow cytometry). The assay is classed as cell-based, human. The following applies: IFN-γ at more than 1 ng/ml, with GM-CSF 50 pg/ml.
Source text: FIGS. 16A-16F are a series of graphs showing tumor-derived IFN-γ and GM-SCF synergistically differentiate immature neutrophils into a subset of APC-like hybrid neutrophils. […] FIGS. 16E-16F show levels of IFN-γ (FIG. 16E) and GM-CSF (FIG. 16F) in supernatants collected from the cell culture of small-sized tumor digests where APC-like hybrid TANs were or were not previously detected (set-off was >10% among all TANs) (line represents mean±SEM, n=10, Mann-Whitney test for unpaired data). Lower panels represent the correlation between the absolute levels of IFN-γ and GM-CSF in the TCM, with the frequency of hybrid neutrophils in each tumor shown in the upper graphs. Non-parametric Spearman test was used to determine the degree of correlation. Representative dot plots from one of five experiments are shown in (FIG. 16A-16D).
as §1

Assay [3] concerns human Ikaros proteins. The following applies: literature (Kronke et al., 2014); cited from earlier work.

Regarding “IFN-γ: Human recombinant IFN-γ purchased from PeproTech”, the “induction of the CD14+HLA-DR+ hybrid phenotype in BMNs” value in assay [1] is recorded as “able to induce the phenotype, although in a relatively low percentage of cells”. The “expression of PD-L1 on the HLA-DR+ BMNs” value in assay [2] was “gradually induced the expression of PD-L1”.
Regarding “GM-CSF: Human recombinant GM-CSF purchased from PeproTech”, the “induction of the CD14+HLA-DR+ hybrid phenotype in BMNs” value in assay [1] is recorded as “able to induce the phenotype, although in a relatively low percentage of cells”.
With `Nc1cccc2c1CN(C1CCC(=O)NC1=O)C2=O` (stereo not drawn) [lenalidomide], the “effect on Ikaros proteins” value in assay [3] was “causes proteasomal degradation of the human Ikaros proteins”. The “development of HLA-DR+CD14+ hybrid neutrophils” value in assay [1] (lenalidomide added to BM neutrophils treated with hybrid-inducing TCM (30% v/v), 6 days) is listed as “dramatically facilitated”.
As to `[Cl][Co][Cl]` [cobalt chloride], in assay [1] (with hybrid-inducing TCM, cobalt chloride 25 μM (hypoxia-simulating), 6 days), the “development of hybrid CD14+HLA-DR+ neutrophils” value is reported as “profoundly inhibited”.
